The text below walks through data of patent US8153805B2, “Biaryl derivatives” (Hoffmann-La Roche Inc., priority 2007, dated 2012).

The assay deals with T1, human CCR2B (Homo sapiens, UniProt P41597).
T1 construct: host or cells: CHO-K1 (CHOK1-CCR2B-A5)
T1 sequence (P41597 1-360 isoform P41597-2): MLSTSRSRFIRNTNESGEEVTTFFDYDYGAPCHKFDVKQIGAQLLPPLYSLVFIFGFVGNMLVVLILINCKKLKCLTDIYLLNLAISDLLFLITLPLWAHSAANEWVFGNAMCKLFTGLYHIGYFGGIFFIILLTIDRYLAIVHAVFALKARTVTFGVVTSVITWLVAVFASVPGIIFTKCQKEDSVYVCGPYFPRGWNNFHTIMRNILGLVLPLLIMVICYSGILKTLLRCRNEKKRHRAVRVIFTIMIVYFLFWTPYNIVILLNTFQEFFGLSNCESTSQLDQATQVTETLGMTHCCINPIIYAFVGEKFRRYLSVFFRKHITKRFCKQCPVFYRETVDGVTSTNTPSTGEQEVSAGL
Put plainly: Calcium mobilization assay (FLIPR, MCP-1 stimulated CHOK1-CCR2B-A5 cells). It counts as cell-based. Conditions: antagonist activity vs 20 nM MCP-1, CHOK1-CCR2B-A5 cells. How it is done:
Calcium Mobilization Assay
CHOK1-CCR2B-A5 cells (from Euroscreen) stably overexpressing the human chemokine receptor 2 isoform B were cultured in Nutrient Hams F12 medium supplemented with 5% FBS, 100 U/ml penicillin, 100 μg/ml streptomycin, 400 μg/ml G418 and 5 μg/ml puromycin.
For the assay cells were grown overnight in 384-well black clear flat bottom polystyrene plates (Costar) at 37° C. at 5% CO2. After washing with DMEM, 20 mM Hepes, 2.5 mM probenecid, 0.1% BSA (DMEM assay buffer) cells were loaded with 4 μM Fluo-4 in the same DMEM assay buffer for 2 hours at 30° C. Excess dye was removed and cells were washed with DMEM assay buffer. 384-well compound plates were prepared with DMEM assay buffer/0.5% DMSO with or without various concentrations of test compounds. Usually compounds were tested for agonist and antagonist activity.
Test compounds were added to the assay plate and agonist activity was monitored as fluorescence for 80 seconds with a FLIPR (488 nm excitation; 510-570 nm emission; Molecular Devices). After 20-30 min. of incubation at 30° C., 20 nM MCP-1 (R&D; Roche) was added and fluorescence was monitored again for 80 seconds. Increases in intracellular calcium are reported as maximum fluorescence after agonist exposure minus basal fluorescence before exposure. Antagonist activity is indicated as inhibitor concentration required for 50% inhibition of specific calcium increases.
In general terms: A change in cytosolic calcium serves as a functional read-out for many receptors and channels.

Molecules are shown by their SMILES.

The IC50 is the concentration needed to halve the response being measured. `Cc1cc(-c2cncc(C(F)(F)F)c2)nc(C)c1C(=O)N1CCC(N2CCC[C@H]2CO)CC1` [Example 43, (4,6-Dimethyl-5′-trifluoromethyl-[2,3′]bipyridinyl-5-yl)-[4-((S)-2-hydroxymethyl-pyrrolidin-1-yl)-piperidin-1-yl]-methanone]: the IC50 was determined as 480 nM.
